Measured values reported in ChEMBL document CHEMBL2424629, “Structure-based design, synthesis, and anticonvulsant activity of isatin-1-N-phenylacetamide derivatives” (Med Chem Res, 2013).
Activity calls are given as the source filed them. No cut-off for these calls is given here.

Tests used:
Mus musculus [1] = organism: Mus musculus; experiment: Protective index, ratio of TD50 for BALB/c mouse by rotarod test to ED50 for BALB/c mouse by maximal electroshock seizure test; type: functional
[2] = Neurotoxicity in ip dosed BALB/c mouse after 30 mins by rotarod test; type: toxicity, organism-based; details: in vivo
Mus musculus [3] = experiment: Neurotoxicity in BALB/c mouse at 100 mg/kg, ip after 0.5 to 4 hrs by rotarod test; type: toxicity, organism-based; set-up: dose 100 mg/kg, route intraperitoneal; details: in vivo
Mus musculus [4] = experiment: Anticonvulsant activity in ip dosed BALB/c mouse assessed as protection against maximal electroshock-induced seizure after 30 mins; type: functional; details: 0.5 h
Mus musculus [5] = experiment: Anticonvulsant activity in BALB/c mouse assessed as protection against maximal electroshock-induced seizure at 100 mg/kg, ip after 0.5 to 4 hrs; type: functional, organism-based; set-up: dose 100 mg/kg
Mus musculus [6] = experiment: Neurotoxicity in BALB/c mouse at 300 mg/kg, ip after 0.5 to 4 hrs by rotarod test; type: toxicity, organism-based; set-up: dose 300 mg/kg, route intraperitoneal; details: in vivo
Mus musculus [7] = experiment: Anticonvulsant activity in BALB/c mouse assessed as protection against maximal electroshock-induced seizure at 300 mg/kg, ip after 0.5 to 4 hrs; type: functional, organism-based; set-up: dose 300 mg/kg

Row | Structure (SMILES) | Ratio TD50/ED50 (Mus musculus [1]) | TD50 at 0.5 h [2] [mg/kg] | Activity (Mus musculus [3]) | ED50 (Mus musculus [4]) [mg/kg] | Activity (Mus musculus [5]) | Activity (Mus musculus [6]) | Activity (Mus musculus [7])
1 | Cc1ccc2c(c1)C(=O)C(=O)N2CC(=O)Nc1ccccc1 | >11 | > 1000 | Non-toxic | 91.3 | Active | Non-toxic | –
2 | Cc1cccc2c1N(CC(=O)Nc1ccccc1)C(=O)C2=O | >8.8 | > 1000 | Non-toxic | 114 | Active | Non-toxic | –
3 | O=C(CN1C(=O)C(=O)c2cccc([N+](=O)[O-])c21)Nc1ccccc1 | – | – | Non-toxic | – | Active | Non-toxic | –
4 | O=C(CN1C(=O)C(=O)c2cccc(Br)c21)Nc1ccccc1 | – | – | Non-toxic | – | inactive | Non-toxic | –
5 | O=C(CN1C(=O)C(=O)c2cc(F)ccc21)Nc1ccccc1 | >9.1 | > 800 | Non-toxic | 88 | Active | Non-toxic | –
6 | O=C(CN1C(=O)C(=O)c2ccc(Cl)cc21)Nc1ccccc1 | – | – | Non-toxic | – | inactive | Non-toxic | –
7 | O=C(CN1C(=O)C(=O)c2cccc(Cl)c21)Nc1ccccc1 | – | – | Non-toxic | – | Active | Non-toxic | –
8 | O=C(CN1C(=O)C(=O)c2ccc(F)cc21)Nc1ccccc1 | – | – | Non-toxic | – | inactive | Non-toxic | –
9 | NC(=O)N1c2ccccc2C=Cc2ccccc21 [CARBAMAZEPINE] | – | > 71.6 | – | 8.8 | – | – | –
10 | O=C(CN1C(=O)C(=O)c2cc(Br)cc(Br)c21)Nc1ccccc1 | – | – | Non-toxic | – | – | Non-toxic | Active
11 | O=C(CN1C(=O)C(=O)c2cc(Cl)ccc21)Nc1ccccc1 | >7.3 | > 800 | Non-toxic | 110 | Active | Non-toxic | –
12 | O=C(CN1C(=O)C(=O)c2ccccc21)Nc1ccccc1 | >10.6 | > 1000 | Non-toxic | 94.7 | Active | Non-toxic | –
13 | Cc1ccc2c(c1)N(CC(=O)Nc1ccccc1)C(=O)C2=O | >7.3 | > 1000 | Non-toxic | 136 | Active | Non-toxic | –
14 | O=C1Nc2ccccc2C1=O [ISATIN] | – | – | Non-toxic | – | – | Non-toxic | Active
15 | CCC1(c2ccccc2)C(=O)NC(=O)NC1=O [PHENOBARBITAL] | – | > 69 | – | 21.8 | – | – | –
16 | O=C(CN1C(=O)C(=O)c2ccc(Br)cc21)Nc1ccccc1 | – | – | Non-toxic | – | inactive | Non-toxic | –
17 | O=C(CN1C(=O)C(=O)c2cc(Br)ccc21)Nc1ccccc1 | – | – | Non-toxic | – | Active | Non-toxic | –
